According to patent US20100028467A1, “Composition Comprising Ginsenosides Isolated From The Extract Of Processed Ginseng For Preventing And Treating Thrombotic Disease” (Ginseng Science, Inc., priority 2008, published 2010):
Read-outs that look alike come from different tables or passages of the source.

Legend:
[1] = system: AA-induced platelet aggregation; test: Platelet aggregation inhibition test (aggregometer), AA-induced; type: cell-based, rat; settings: for IC50: AA 30˜60×10^−6M with near-threshold collagen, rat adjusted PRP; for fold stronger activity than ASA on AA-induced aggregation: relative to ASA
Description: (§1) 7 weeks-year old Sprgue-Dawley male white rat (240±20 g, Orient Bio Co. Ltd) was anesthetized with diethyl ether. The blood of rat was collected from heart using a syringe containing 2.2% sodium citrate (10% v/v) and centrifuged for 10 mins with the speed of 200×g and the supernatant (upper layer) of buffy coat was collected using by serum separator (Mediland Co. Ltd, 10×250 mm) to afford platelet rich plasma containing supematant(PRP). The residue was centrifuged at 1500×g for 15 min to obtain the platelet poor plasma (PPP) and the PRP was diluted with PPP to adjust the final platelet number in PRP to 4.0-4.5×10^8/ml. Platelet number was counted using a platelet counter (Excell 18 MWI, DANAM Electronics, USA) disclosed in the literature (Lee Y. Y. et al., Anti-platelet Aggregating and anti-oxidative activities of 11-O-(4′-O-Methylgalloy)-bergenin, A new compound isolated from Crassul cv. “Himaturi”, Planta Med., 71, pp 776-777).
(§2) An aliquote (500 μl) of platelet count adjusted PRP was preincubated for 3 minutes at 37° C. in an aggregometer (490-X optical aggregometer, Chrono-Log Corp, USA) with constant stirring at 1,000 rpm. 5 μl of ginsenoside solution was added followed by successive addition of aggregation inducing agent (5 μl) at an intervals of 30 s to incubate for 30 sec with stirring at the speed of 1100 rpm. Arachidonic acid (AA, Sigma, A8798), Thromboxane A2 (U46619, Sigma, D8174) and collagen (Chrono-Log, No. 385) were used as aggregation inducing agents at the concentration of 30˜60×10^−6M (AA), 2˜4×10^−6M (U46619) and 2˜4×10^−6 g/ml (collagen) respectively. Aspirin was used as a positive control. […] The aggregation induced by AA and U46619 was determined in presence of a near-threshold concentration (1.0-1.4 μg/ml and 0.8-1.2 μg/ml, respectively) of collagen that can only induce change in platelet shape but no aggregation.
(§3) Inhibition (%) was calculated as follows: Inhibition (%)=(1−maximal aggregation of sample-treated aPRP/maximal aggregation of vehicle-treated aPRP)×100 All experiments were performed in tripticates. IC50 values were calculated from the linear regression of the plot of mean values (n=3) of percent inhibition versus concentration of corresponding ginsenoside. Sigma Plot software was used for graphing. Regression equations were calculated using Regression Wizard from the Sigma Plot equation library.

[2] = system: U46619 (thromboxane A2 mimetic drug)-induced platelet aggregation; test: Platelet aggregation inhibition test (aggregometer), U46619-induced; type: cell-based, rat; settings: for IC50: U46619 2˜4×10^−6M with near-threshold collagen, rat adjusted PRP
Description: as §1, §2, §3

[3] = system: collagen-induced platelet aggregation; test: Platelet aggregation inhibition test (aggregometer), collagen-induced; type: cell-based, rat; settings: for IC50: collagen 2˜4×10^−6 g/ml, rat adjusted PRP
Description: as §1, §2, §3

human plasma coagulation [4] = test: Anti-coagulation test, aPTT (activated partial thromboplastin time); type: biochemical
Description: (§4) The inhibitory effect of the ginsenosides prepared in Examples on human plasma coagulation was determined by aPTT (activated partial thromboplastin time), PT(prothrombin time) and TT(thrombin time) tests.
(§5) Fresh freeze plasma was procured from the blood bank of Seoul National University Hospital (www.snuh.org) to use in the Anti-coagulation Test in human plasma.
(§6) To determine aPTT, 0.1 ml plasma treated with test samples was incubated at 37° C. for 2 mins and aPTT reagent (Diagnostica Stago, Cat. 0595) was added thereto to incubate for 3 mins. The coagulation time from the starting time of plasma coagulation with 0.1 ml of 20 mM calcium chloride solution to the ending time of plasma agglutination was determined using by fibrometer (BBL Fibrosystems, Fischer Scientific, USA).

human plasma coagulation [5] = test: Anti-coagulation test, PT (prothrombin time); type: biochemical
Description: as §4, §5
as §6, with “PT and TT,” for “aPTT,”, “samples in the case of PT and 0.2 ml plasma treated with test samples in the case of TT” for “samples”, “respectively. 2 ml of PT” for “and aPTT”, “0605) and TT reagent (Diagnostica Stago, Cat. 0611) were” for “0595) was”

human plasma coagulation [6] = test: Anti-coagulation test, TT (thrombin time); type: biochemical
Description: as §4, §5
as §6, with “PT and TT,” for “aPTT,”, “samples in the case of PT and 0.2 ml plasma treated with test samples in the case of TT” for “samples”, “respectively. 2 ml of PT” for “and aPTT”, “0605) and TT reagent (Diagnostica Stago, Cat. 0611) were” for “0595) was”

[7] = system: rat platelet aggregation induced by ADP; test: Modified smear method, ADP-induced platelet aggregation in PRP; type: cell-based; parameters: key: ++: full aggregation of platelet; +: intermediate aggregation of platelet; ±: slight aggregation of platelet; −: no aggregation of platelet; settings: ADP 3.2 × 10^−6 M
Description: (§7) The inhibitory effect of the ginsenosides prepared in Examples on the rat platelet aggregation was determined according to the procedure disclosed in the literature (Yun-Choi et al., Modified smear method for screening potential inhibitors of platelet aggregation from plant sources, J. Nat. Prod., 48(3), pp 363-370, 1985).
(§8) The blood of 7 weeks-year old Sprgue-Dawley rat (male, 240±20 g, Orient Bio Co. Ltd) was collected using a syringe containing 2.2% sodium citrate (10% v/v) and centrifuged for 10 mins with the speed of 200× g to collect platelet rich plasma containing supernatant(PRP). 0.16 ml of PRP was treated with 0.2 ml of SG, SGbu-1, and SGBu-2 as test samples and 0.2 ml of solutions of arachidonic acid (Sigma, A8798), ADP (Sigma, A4386) and collagen (Chrono-Log, No. 385) as platelet aggregation inducers (control group) to incubate for 4 mins at 37° C.
(§9) Thin Smear prepared from step 1-1 was stained and the intensity of platelet aggregation result was observed by microscopy method. The intensity of platelet aggregation result was divided into […] categories, i.e., “++”: full aggregation of platelet; “+”: intermediate aggregation of platelet; “±”: slight aggregation of platelet; “−”: no aggregation of platelet.

[8] = system: rat platelet aggregation induced by collagen; test: Modified smear method, collagen-induced platelet aggregation in PRP; type: cell-based; parameters: key: ++: full aggregation of platelet; +: intermediate aggregation of platelet; ±: slight aggregation of platelet; −: no aggregation of platelet; settings: collagen 2 × 10^−5 g/ml
Description: as §7, §8, §9

[9] = system: rat platelet aggregation induced by arachidonic acid; test: Modified smear method, arachidonic acid-induced platelet aggregation in PRP; type: cell-based; parameters: key: ++: full aggregation of platelet; +: intermediate aggregation of platelet; ±: slight aggregation of platelet; −: no aggregation of platelet; settings: AA 4 × 10^−4 M
Description: as §7, §8, §9

Structure (SMILES) | inhibitory effect on AA-induced platelet aggregation (in words) [1] | IC50 [1] [µM] | fold stronger activity than ASA on AA-induced aggregation [1] [fold] | inhibitory effect on U46619-induced platelet aggregation (in words) [2] | IC50 [2] [µM] | inhibitory effect on collagen-induced platelet aggregation (in words) [3] | IC50 [3] [µM] | aPTT (human plasma coagulation [4]) [s] | PT (human plasma coagulation [5]) [s] | TT (human plasma coagulation [6]) [s] | other results
CC(C)=CCC[C@](C)(O)[C@H]1CC[C@]2(C)[C@@H]1[C@H](O)C[C@@H]1[C@@]3(C)CC[C@H](O[C@@H]4O[C@H](CO)[C@@H](O)[C@H](O)[C@H]4O[C@@H]4O[C@H](CO)[C@@H](O)[C@H](O)[C@H]4O)C(C)(C)[C@@H]3CC[C@]12C (racemic) [Racemic ginsenoside Rg3, ginsenoside Rg3] | exhibited inhibitory effect |  |  |  |  |  |  |  |  |  | 
C=C(CCC=C(C)C)[C@H]1CC[C@]2(C)[C@@H]1[C@H](O)C[C@@H]1[C@@]3(C)CC[C@H](O[C@@H]4O[C@H](CO)[C@@H](O)[C@H](O)[C@H]4O[C@@H]4O[C@H](CO)[C@@H](O)[C@H](O)[C@H]4O)C(C)(C)[C@@H]3CC[C@]12C [ginsenoside Rk1] | strongest inhibitory effect among four tested compounds | 3 | 22 | strongest inhibitory effect among four tested compounds | 78 | strongest inhibitory effect among four tested compounds | 197 | 54.5 | 29.8 | 14.3 | fold higher activity than ASA on collagen-induced aggregation ([3]; relative to ASA): 3 fold
CC(C)=CC/C=C(\C)[C@H]1CC[C@]2(C)[C@@H]1[C@H](O)C[C@@H]1[C@@]3(C)CC[C@H](O[C@@H]4O[C@H](CO)[C@@H](O)[C@H](O)[C@H]4O[C@@H]4O[C@H](CO)[C@@H](O)[C@H](O)[C@H]4O)C(C)(C)[C@@H]3CC[C@]12C [ginsenoside Rg5] |  | 8 | 8 |  | 102 | comparable to that of ASA | 409 | 66.0 | 28.1 | 14.1 | 
CC(=O)Oc1ccccc1C(=O)O [Aspirin(ASP), Aspirin] |  |  |  |  |  |  |  |  |  |  | intensity of platelet aggregation, inducer ADP ([7]; 2.8 × 10^−3 M Aspirin): −; intensity of platelet aggregation, inducer ADP (value in brackets) ([7]; Aspirin (5.5 × 10^−3 M)): ±; intensity of platelet aggregation, inducer collagen ([8]; 1.4 × 10^−3 M Aspirin): −; intensity of platelet aggregation, inducer collagen (value in brackets) ([8]; Aspirin (2.8 × 10^−3 M)): ±; intensity of platelet aggregation, inducer AA ([9]; 0.7 × 10^−3 M Aspirin): −; intensity of platelet aggregation, inducer AA (value in brackets) ([9]; Aspirin (1.4 × 10^−3 M)): ±; IC50 ([1]; Platelet): 66 µM; IC50 ([2]; Platelet): 508 µM; IC50 ([3]; Platelet): 588 µM
CC(C)=CCC[C@](C)(O)[C@H]1CC[C@]2(C)[C@@H]1[C@H](O)C[C@@H]1[C@@]3(C)CC[C@H](O[C@@H]4O[C@H](CO)[C@@H](O)[C@H](O)[C@H]4O[C@@H]4O[C@H](CO)[C@@H](O)[C@H](O)[C@H]4O)C(C)(C)[C@@H]3CC[C@]12C [20(R)-ginsenosides Rg3, 20(R)-ginsenoside Rg3] |  | > 100 |  | inhibited | 357 | inhibited | 492 | 50.3 | 24.1 | 13.6 | inhibitory effect on AA-induced platelet aggregation (in words) ([1]; listed as 20(R)-Rg3): only poor platelet antiaggregating activity; inhibitory effect on collagen-induced platelet aggregation (in words) ([3]; listed as 20(R)-Rg3): comparable to that of ASA
CC(C)=CCC[C@](C)(O)[C@H]1CC[C@]2(C)[C@@H]1[C@H](O)C[C@@H]1[C@@]3(C)CC[C@H](O[C@@H]4O[C@H](CO)[C@@H](O)[C@H](O)[C@H]4O[C@@H]4O[C@H](CO)[C@@H](O)[C@H](O)[C@H]4O)C(C)(C)[C@@H]3CC[C@]12C [20(S)-ginsenosides Rg3, 20(S)-ginsenoside Rg3] | relatively strong inhibitory effect | 53 |  |  | > 700 |  | > 700 | 57.2 | 23.5 | 12.9 | 
